# Patent publication US7247634B2, “Rifamycin derivatives effective against drug-resistant microbes” (Cumbre Pharmaceuticals Inc., priority 2004, dated 2007)
# Legend:
# Type in all cases: cell-based
# [1] = tested on: Streptococcus pyogenes ATCC19615; test: MIC, microbroth dilution (NCCLS); conditions: rifS strain, THY Broth, 37° C., read-out: Antimicrobial activity (MIC)
# [2] = tested on: Haemophilus influenzae ATCC10211; test: MIC, microbroth dilution (NCCLS); conditions: rifS strain, BHI Broth with NAD and hematin, 37° C., read-out: Antimicrobial activity (MIC)
# [3] = tested on: Staphylococcus epidermidis ATCC12228; test: MIC, microbroth dilution (NCCLS); conditions: rifS strain, Cation-Adjusted Mueller-Hinton Broth, 37° C., read-out: Antimicrobial activity (MIC)
# [4] = tested on: Staphylococcus aureus ATCC29213; test: MIC, microbroth dilution (NCCLS); conditions: rifS strain, Cation-Adjusted Mueller-Hinton Broth, 37° C., read-out: Antimicrobial activity (MIC)
# [5] = tested on: Enterococcus faecalis ATCC29212; test: MIC, microbroth dilution (NCCLS); conditions: rifS strain, BHI Broth, 37° C., read-out: Antimicrobial activity (MIC)
# [6] = tested on: Escherichia coli ATCC25922; test: MIC, microbroth dilution (NCCLS); conditions: rifS strain, Cation-Adjusted Mueller-Hinton Broth, 37° C., read-out: Antimicrobial activity (MIC)
# [7] = tested on: Staphylococcus aureus ATCC29213 rpoB^H418Y; test: microbe, parasite or virus in culture; conditions: ATCC29213, read-out: Antimicrobial activity (MIC)
# How it was run: (§1)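 MICs by NCCLS broth microdilution, incubation at 37 °C, in cation-adjusted Mueller-Hinton broth. Strains: rifampin-resistant S. aureus ATCC 29213 with rpoB D417Y or H418Y, and quinolone-resistant EN1252a carrying gyrA S84L plus grlA S80F.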
# [8] = tested on: Staphylococcus aureus ATCC29213 rpoB^D417Y; test: microbe, parasite or virus in culture; conditions: ATCC29213, read-out: Antimicrobial activity (MIC)
# How it was run: as §1
# [9] = tested on: Staphylococcus aureus EN1252a gyrA^S84L grlA^S80F; test: microbe, parasite or virus in culture; conditions: read-out: Antimicrobial activity (MIC)
# How it was run: as §1
# [10] = tested on: Mycobacterium smegmatis ATCC700084; test: MIC, microbroth dilution (NCCLS); conditions: Mycolicibacterium smegmatis, rifS strain, Middlebrook Broth plus ADC Enrichment, 37° C., read-out: Antimicrobial activity (MIC)
# [11] = tested on: Streptococcus pneumoniae ATCC6303; test: MIC, microbroth dilution (NCCLS); conditions: rifS strain, THY Broth with 1 mg/mL catalase, 5% CO2, 37° C., read-out: Antimicrobial activity (MIC)
SMILES,MIC [1] [µg/mL],MIC [2] [µg/mL],MIC [3] [µg/mL],MIC [4] [µg/mL],MIC [5] [µg/mL],MIC [6] [µg/mL],MIC [7] [µg/mL],MIC [8] [µg/mL],MIC [9] [µg/mL],MIC [10] [µg/mL],MIC [11] [µg/mL]
"CO[C@H]1/C=C/O[C@@]2(C)Oc3c(C)c(O)c4c(c3C2=O)C(=O)C(NCCN2CCN(c3ccc(N5C[C@H](CNC(C)=O)OC5=O)cc3F)CC2)=C(NC(=O)/C(C)=C\C=C\[C@H](C)[C@H](O)[C@@H](C)[C@@H](O)[C@@H](C)[C@H](OC(C)=O)[C@@H]1C)C4=O [Example 24, (S)-3-[4-[4-(5-Acetylaminomethyl-2-oxo-oxazolidin-3-yl)-2-fluoro-phenyl]-piperazin-1-ylethylamino]-rifamycin S]",0.008 to 0.063,0.125 to 2,0.008 to 0.063,0.004 to 0.5,2 to 32,0.125 to 8,0.06 to 16,0.06 to 32,0.004 to 0.5,0.5 to 64,0.008 to 0.125
"CO[C@H]1/C=C/O[C@@]2(C)Oc3c(C)c(O)c4c(c3C2=O)C(=O)C(NCC2CN(c3cc5c(cc3F)c(=O)c(C(=O)O)cn5C3CC3)C2)=C(NC(=O)/C(C)=C\C=C\[C@H](C)[C@H](O)[C@@H](C)[C@@H](O)[C@@H](C)[C@H](OC(C)=O)[C@@H]1C)C4=O [Example 25, 3-[1-(3-Carboxy-1-cyclopropyl-6-fluoro-4-oxo-1,4-dihydroquinolin-7-yl)azetidin-3-methylamino)rifamycin S]",0.008 to 0.063,0.125 to 2,0.008 to 0.063,0.004 to 0.5,2 to 32,0.125 to 8,0.06 to 16,0.06 to 32,0.004 to 0.5,0.5 to 64,0.008 to 0.125
"COc1c(N2CCN(C3=C4NC(=O)/C(C)=C\C=C\[C@H](C)[C@H](O)[C@@H](C)[C@@H](O)[C@@H](C)[C@H](OC(C)=O)[C@H](C)[C@@H](OC)/C=C/O[C@@]5(C)Oc6c(C)c(O)c(c(c6C5=O)C3=O)C4=O)CC2)c(F)cc2c(=O)c(C(=O)O)cn(C3CC3)c12 [Example 26, 3-[4-(3-Carboxy-1-cyclopropyl-6-fluoro-8-methoxy-4-oxo-1,4-dihydroquinolin-7-yl)-piperazin-1-yl]rifamycin S]",0.008 to 0.063,0.125 to 2,0.008 to 0.063,0.004 to 0.5,2 to 32,0.125 to 8,0.06 to 16,0.06 to 32,0.004 to 0.5,0.5 to 64,0.008 to 0.125
"COc1c(N2CCN(C3CCN(C4=C5NC(=O)/C(C)=C\C=C\[C@H](C)[C@H](O)[C@@H](C)[C@@H](O)[C@@H](C)[C@H](OC(C)=O)[C@H](C)[C@@H](OC)/C=C/O[C@@]6(C)Oc7c(C)c(O)c(c(c7C6=O)C4=O)C5=O)CC3)CC2)c(F)cc2c(=O)c(C(=O)O)cn(C3CC3)c12 [Example 31, 3-{4-[1-(3-Carboxy-1-cyclopropyl-6-fluoro-8-methoxy-4-oxo-1,4-dihydroquinolin-7-yl)-piperazin-4-yl]-piperidin-1-yl}rifamycin S]",0.008 to 0.063,0.125 to 2,0.008 to 0.063,0.004 to 0.5,2 to 32,0.125 to 8,0.06 to 16,0.06 to 32,0.004 to 0.5,0.5 to 64,0.008 to 0.125
